One may read the MIC as the lowest concentration found to suppress growth. Higher therefore signals a need for much substance. Broadly, the IC50 is the point on the concentration scale where inhibition reaches its midpoint. Read a low IC50 as greater potency in that assay.

This is an account of results in ChEMBL document CHEMBL4602605, “Fluoroquinolones structural and medicinal developments (2013-2018): Where are we now?” (Bioorg Med Chem, 2019).

In brackets after ≈: the same amount, converted by molar mass. Bounds are passed on as bounds.

Test [1] deals with Enterococcus faecalis. In words: Antimicrobial activity against Enterococcus faecalis ATCC 29212 incubated for 18 to 24 hrs by microbroth dilution method. The format is functional.
The subject of test [2] is Staphylococcus aureus. The experiment in a line: Antimicrobial activity against Staphylococcus aureus ATCC 25923 incubated for 18 to 24 hrs by microbroth dilution method. The format is functional. (Dilution methods test growth across graded concentrations, often in twofold steps.)
A further test concerns Bacillus cereus. The experiment in a line: Antimicrobial activity against Bacillus cereus 709 Roma incubated for 18 to 24 hrs by microbroth dilution method. The format is functional.
Test [3] concerns Mycolicibacterium smegmatis. The experiment in a line: Antimicrobial activity against Mycobacterium smegmatis ATCC 607 incubated for 48 to 72 hrs by microbroth dilution method. Type of test: functional.
The subject of test [4] is Escherichia coli. The experiment in a line: Antimicrobial activity against Escherichia coli ATCC 25922 incubated for 18 to 24 hrs by microbroth dilution method. The format is functional.
The test system of the next test is Pseudomonas aeruginosa. The experiment in a line: Antimicrobial activity against Pseudomonas aeruginosa ATCC 43288 incubated for 18 to 24 hrs by microbroth dilution method. The format is functional.
For test [5], the system named is Mycolicibacterium smegmatis. In words: Antimicrobial activity against Mycobacterium smegmatis incubated for 30 to 32 hrs by spectrophotometry based assay. The format is functional.
For the next test, the system named is Candida albicans. In words: Antifungal activity against Candida albicans after overnight incubation by agar well diffusion method. The format is functional.
Another test deals with PC-3. The experiment in a line: Growth inhibition of human PC3 cells by MTT assay. Type of test: functional, cell-based.
Another test concerns Mycobacterium avium. In words: Antimicrobial activity against Mycobacterium avium incubated for 10 days by microbroth dilution method. Type of test: functional. To be noted: 240 h.
Test [6] has as its system Mycobacterium tuberculosis. In words: Antimicrobial activity against Mycobacterium tuberculosis H37Rv incubated for 10 days by microbroth dilution method. Type of test: functional. To be noted: 240 h.
A further test has as its system Mycolicibacter terrae. The experiment in a line: Antimicrobial activity against Mycobacterium terrae incubated for 10 days by microbroth dilution method. The format is functional. To be noted: 240 h.
Test [7] concerns Staphylococcus aureus. In words: Antimicrobial activity against methicillin-susceptible Staphylococcus aureus ATCC 29213 incubated for 24 hrs by serial dilution method. To be noted: ATCC 29213, 24 h. Type of test: functional.
For a further test, the system named is Moraxella catarrhalis. In words: Antimicrobial activity against Moraxella catarrhalis ATCC 25238 incubated for 24 hrs by serial dilution method. The format is functional. To be noted: ATCC 25238, 24 h.
In a further test the test system is PANC-1. In words: Growth inhibition of human PANC1 cells at 10 uM incubated for 48 hrs by MTT assay. The following applies: PANC-1, 48 h, read-out: GI. The format is functional. On the technique in general: Formazan colour is commonly taken as a measure of viable cells.
Another test concerns HeLa. The experiment in a line: Growth inhibition of human HeLa cells at 10 uM incubated for 48 hrs by MTT assay relative to control. The format is functional. The following applies: read-out: GI.
The subject of test [8] is Escherichia coli. The experiment in a line: Antimicrobial activity against Escherichia coli ATCC 35218 incubated for 24 hrs by serial dilution method. Type of test: functional. To be noted: ATCC 35218, 24 h.
Test [9] relates to Staphylococcus aureus. The experiment in a line: Antimicrobial activity against methicillin-resistant Staphylococcus aureus ATCC 33591 incubated for 24 hrs by serial dilution method. The format is functional. To be noted: ATCC 33591, 24 h.
The test system of a further test is Klebsiella pneumoniae. In words: Antimicrobial activity against Klebsiella pneumoniae ATCC 35657 incubated for 24 hrs by serial dilution method. The format is functional. To be noted: ATCC 35657, 24 h.
The test system of the next test is A549. The experiment in a line: Growth inhibition of human A549 cells at 10 uM incubated for 48 hrs by MTT assay relative to control. Type of test: functional. The following applies: A549, 48 h, read-out: GI.
Test [10] concerns Enterococcus faecalis. In words: Antimicrobial activity against Enterococcus faecalis ATCC 29212 incubated for 24 hrs by serial dilution method. The format is functional. The following applies: ATCC 29212, 24 h.
The subject of a further test is HCT-116. In words: Growth inhibition of human HCT116 cells at 10 uM incubated for 48 hrs by MTT assay relative to control. The format is functional. The following applies: HCT-116, 48 h, read-out: GI.
A further test deals with Aspergillus clavatus. In words: Antifungal activity against Aspergillus clavatus after overnight incubation by agar well diffusion method. Type of test: functional. In general terms: In agar diffusion tests the substance spreads into inoculated agar from a disc or well.
In test [11] the test system is Staphylococcus aureus. The experiment in a line: Antimicrobial activity against Staphylococcus aureus ATCC 25923 by CLSI method. The format is functional.
The subject of test [12] is Escherichia coli. In words: Antimicrobial activity against Escherichia coli ATCC 25922 by CLSI method. The format is functional.
For test [13], the system named is Yersinia pseudotuberculosis. The experiment in a line: Antimicrobial activity against Yersinia pseudotuberculosis ATCC 911 incubated for 18 to 24 hrs by microbroth dilution method. Type of test: functional.
Test [14] has as its system Escherichia coli. The experiment in a line: Antimicrobial activity against penicillin-resistant Escherichia coli at < 1 ug/ml relative to control. Type of test: functional.

For the molecule `CCn1cc(C(=O)O)c(=O)c2cc(F)c(N3CCN(Cn4nc(CN5CCN(c6ccc([N+](=O)[O-])cc6)CC5)n(Cc5ccccc5)c4=O)CC3)cc21`, the MIC is 0.48 to 0.5 µg/mL (≈ 0.661 to 0.689 µM) against Enterococcus faecalis [1]; 0.24 to 0.25 µg/mL (≈ 0.331 to 0.344 µM) in the test with Staphylococcus aureus [2]; 0.24 to 0.25 µg/mL (≈ 0.331 to 0.344 µM) in the test with Bacillus cereus; 0.244 to 0.99 µg/mL (≈ 0.336 to 1.36 µM) in test [3]; 0.25 to 0.99 µg/mL (≈ 0.344 to 1.36 µM) in the test with Escherichia coli [4]; 0.24 to 0.5 µg/mL (≈ 0.331 to 0.689 µM) against Pseudomonas aeruginosa.
`COc1c(N2CCN(C)CC2)c(F)cc2c(=O)c(C(=O)N/N=C\c3c(Cl)cccc3Cl)cn(C3CC3)c12` registered an MIC in test [5] of 27 µM (≈ 14.8 µg/mL). For the same molecule, the “inhibition zone (IZ)” value in the test on Candida albicans is reported as 9 mm. In the test with PC-3, this molecule came in with a concentration for half-maximal inhibition (IC50) of 4.9 µg/mL (≈ 8.97 µM).
Turning to `CCn1cc(C(=O)O)c(=O)c2cc(F)c(-c3cc4cc(C(C)(C)C)cc(C(C)(C)C)c4oc3=O)cc21`, the MIC turned out to be 3.1 µg/mL (≈ 6.31 µM) against Mycobacterium avium, 3.1 µg/mL (≈ 6.31 µM) in test [6] and 1.5 µg/mL (≈ 3.05 µM) in the test on Mycolicibacter terrae.
With `CCCN(CCC)Cc1cn(-c2cc3c(cc2F)c(=O)c(C(=O)NO)cn3C2CC2)nn1`, the MIC is 64 µg/mL (≈ 145 µM) in the test on Staphylococcus aureus [7]; 64 µg/mL (≈ 145 µM) with Moraxella catarrhalis; 64 µg/mL (≈ 145 µM) with Escherichia coli [8]; more than 64 µg/mL against Staphylococcus aureus [9]; 32 µg/mL (≈ 72.3 µM) in the test with Klebsiella pneumoniae; 64 µg/mL (≈ 145 µM) against Enterococcus faecalis [10]. Besides, the inhibition of growth at 10 µM was determined as 15% in the test with PANC-1, 15% in the test on HeLa, 20% in the test with A549 and 10% in the test with HCT-116.
`CCN(CC)Cc1cn(-c2cc3c(cc2F)c(=O)c(C(=O)NO)cn3C2CC2)nn1`: the MIC against Staphylococcus aureus [7] was 64 µg/mL (≈ 154 µM); in the test on Moraxella catarrhalis, 16 µg/mL (≈ 38.6 µM); in the test on Escherichia coli [8] it was 16 µg/mL (≈ 38.6 µM); against Staphylococcus aureus [9], more than 64 µg/mL; against Klebsiella pneumoniae it was 8 µg/mL (≈ 19.3 µM); in the test on Enterococcus faecalis [10] it was 64 µg/mL (≈ 154 µM). Further, the inhibition of growth at 10 µM in the test with PANC-1 came to 30%; in the test with HeLa it was 10%; with A549, 40%; in the test with HCT-116, 30%.
Turning to `COc1c(N2CCN(C)CC2)c(F)cc2c(=O)c(C(=O)N/N=C\c3cccc(O)c3)cn(C3CC3)c12`, the MIC in [5] stood at 27.2 µM (≈ 13.4 µg/mL). The molecule further came in with an IC50 with PC-3 of 3.4 µg/mL (≈ 6.89 µM).
With `CCn1cc(C(=O)O)c(=O)c2cc(F)c(-c3cc4cc(Br)ccc4oc3=O)cc21`, the MIC (against Mycobacterium avium; in [6]; in the test with Mycolicibacter terrae) was 6.2 µg/mL (≈ 13.5 µM) in each case.
In [5], `COc1cc(/C=N\NC(=O)c2cn(C3CC3)c3c(OC)c(N4CCN(C)CC4)c(F)cc3c2=O)cc(OC)c1OC` came in with an MIC of 81.2 µM (≈ 46.1 µg/mL). Besides, the “inhibition zone (IZ)” value in the test with Candida albicans and in the test on Aspergillus clavatus was 13 mm each time. Also, in the test on PC-3, the IC50 amounted to 8.5 µg/mL (≈ 15 µM).
For `CCN1CCN(c2cc3c(cc2F)c(=O)c(C(=O)O)cn3C2CC2)CC1` [ENROFLOXACIN], the results for the minimum inhibitory concentration (MIC) in the test on Staphylococcus aureus [11] and in the test on Escherichia coli [12] were 2 µg/mL (≈ 5.56 µM) and 0.031 µg/mL (≈ 0.0863 µM), respectively.
On to `CCn1c(CN2CCN(c3ccc([N+](=O)[O-])cc3)CC2)nn(CN2CCN(c3cc4c(cc3F)c(=O)c(C(=O)O)cn4CC)CC2)c1=S`, for which the MIC is 0.122 µg/mL (≈ 0.179 µM) with Enterococcus faecalis [1]; 0.25 µg/mL (≈ 0.368 µM) in test [13]; 0.25 to 0.99 µg/mL (≈ 0.368 to 1.46 µM) in the test on Staphylococcus aureus [2]; 0.122 to 0.25 µg/mL (≈ 0.179 to 0.368 µM) against Bacillus cereus; 0.244 µg/mL (≈ 0.359 µM) in [3]; not above 0.03 µg/mL with Escherichia coli [4]. In addition, the minimum inhibitory concentration (MIC) against Pseudomonas aeruginosa was in the range of 0.25 to 0.5 µg/mL (≈ 0.368 to 0.736 µM).
Regarding `CCCCCCCCOC(=O)c1cn(C2CC2)c2cc(N3CCNCC3)c(F)cc2c1=O`, the “inhibition (INH)” value in the test with Escherichia coli [14] is listed as more than 60%.
On the same count and under the same terms, the value for `CCCOC(=O)c1cn(C2CC2)c2cc(N3CCNCC3)c(F)cc2c1=O` was more than 60%.
